Common to all, as to type: in vivo
One series concerns SETVI (Setaria viridis). Put plainly: greenhouse herbicidal activity, post-emergence treatment. The settings on record: post-emergence method, application rate 16 g/ha, scale from 0 to 100, read-out: herbicidal activity against SETVI. The source says: (§1) The seeds of the test plants were sown separately for each species. For the post-emergence treatment, the test plants were first grown to a height of 3 to 15 cm, depending on the plant habit, and only then treated with the active ingredients which had been suspended or emulsified in water. For this purpose, the test plants were either sown directly and grown in the same containers, or they were first grown separately as seedlings and transplanted into the test containers a few days prior to treatment. Depending on the species, the plants were kept at 10-25° C. or 20-35° C., respectively. The test period extended over 2 to 4 weeks. During this time, the plants were tended, and their response to the individual treatments was evaluated. Evaluation was carried out using a scale from 0 to 100. 100 means no emergence of the plants, or complete destruction of at least the aerial moieties, and 0 means no damage, or normal course of growth. A good herbicidal activity is given at values of at least 70 and a very good herbicidal activity is given at values of at least 85. [table]

The test system of series [1] is CHEAL (Chenopodium album). The series is described as above. The settings on record: post-emergence method, application rate 16 g/ha, scale from 0 to 100, read-out: herbicidal activity against CHEAL.
Description: as §1

For series [2], the system named is ECHCG (Echinocloa crus-galli). The description is as above. The settings on record: scale from 0 to 100; for pest or weed control at 16 g/ha: Echinochloa crus-galli, post-emergence method, application rate 16 g/ha, read-out: herbicidal activity against ECHCG; for damages unwanted plants ECHCG: post-emergence application, 2 g/ha, control 21 days after treatment (greenhouse).
Description: as §1

Series [3] concerns AMARE (Amaranthus retroflexus). The series is described as above. The settings on record: post-emergence method, application rate 16 g/ha, scale from 0 to 100, read-out: herbicidal activity against AMARE.
Description: as §1

The subject of series [4] is ZEAMX (Zea mays). Put plainly: greenhouse crop plant damage, post-emergence treatment. The settings on record: post-emergence application, 2 g/ha, control 21 days after treatment (greenhouse), scale from 0 to 100.
Description: as §1

Series [5] relates to AMARE (Amaranthus retroflexus). Put plainly: greenhouse herbicidal activity, pre-emergence treatment. The settings on record: pre-emergence application, 32 g/ha, control 21 days after treatment (greenhouse), scale from 0 to 100. The source says:
(§2) The seeds of the test plants were sown separately for each species. For the pre-emergence treatment, the active ingredients, which had been suspended or emulsified in water, were applied directly after sowing by means of finely distributing nozzles. The containers were irrigated gently to promote germination and growth and subsequently covered with transparent plastic hoods until the plants had rooted. This cover caused uniform germination of the test plants, unless this had been impaired by the active ingredients. Depending on the species, the plants were kept at 10-25° C. or 20-35° C., respectively. The test period extended over 2 to 4 weeks. During this time, the plants were tended, and their response to the individual treatments was evaluated. Evaluation was carried out using a scale from 0 to 100. 100 means no emergence of the plants, or complete destruction of at least the aerial moieties, and 0 means no damage, or normal course of growth. A good herbicidal activity is given at values of at least 70 and a very good herbicidal activity is given at values of at least 85. [table]

The test system of series [6] is ZEAMX (Zea mays). Nature of the series: greenhouse crop plant damage, pre-emergence treatment. The settings on record: pre-emergence application, 32 g/ha, control 21 days after treatment (greenhouse), scale from 0 to 100.
Description: as §2

`CCOC(=O)COc1ncccc1Oc1cc(-c2nn(C)c(OC(F)F)c2Cl)c(F)cc1Cl` [Example 1, ethyl 2-[[3-[2-chloro-5-[4-chloro-5-(difluoromethoxy)-1-methyl-pyrazol-3-yl]-4-fluoro-phenoxy]-2-pyridyl]oxy]acetate]: the pest or weed control at 16 g/ha (with SETVI (Setaria viridis); in series [1]; in series [2]; in series [3]) was ≥ 85% each time.

`CCOC(=O)COc1ncccc1Oc1cc(-n2nc3n(c2=O)CCCC3)c(Cl)cc1Cl` [Example 2, ethyl 2-[[3-[2,4-dichloro-5-(3-oxo-5,6,7,8-tetrahydro-[1,2,4]triazolo[4,3-a]pyridin-2-yl)phenoxy]-2-pyridyl]oxy]acetate]: the pest or weed control at 16 g/ha (in the series on SETVI (Setaria viridis); in series [1]; in series [2]; in series [3]) was ≥ 85% throughout.

For `CCOC(=O)COc1ncccc1Oc1cc(-n2c(=O)c(C)c(C(F)(F)F)n(C)c2=O)c(F)cc1[N+](=O)[O-]` [Example 4, Ethyl 2-[[3-[5-[3,5-dimethyl-2,6-dioxo-4-(trifluoromethyl)pyrimidin-1-yl]-4-fluoro-2-nitro-phenoxy]-2-pyridyl]oxy]acetate], the pest or weed control at 16 g/ha (in the series with SETVI (Setaria viridis); in series [1]; in series [2]; in series [3]) was ≥ 85% throughout.

With `COC(=O)C(OC)Oc1ccccc1Oc1cc(-n2nc3n(c2=O)CCCC3)c(Cl)cc1Cl` (stereo not drawn) [Example 7], the pest or weed control at 16 g/ha (in the series with SETVI (Setaria viridis); in series [1]; in series [2]; in series [3]) was ≥ 85% in each case.

`O=C(O)COc1ncccc1Oc1cc(-n2nc3n(c2=O)CCCC3)c(Cl)cc1Cl` [Example 8]: the pest or weed control at 16 g/ha (in the series on SETVI (Setaria viridis); in series [1]; in series [2]; in series [3]) was ≥ 85% in each case.

In the case of `CCOC(=O)C(C)Oc1ncccc1Oc1cc(-n2nc3n(c2=O)CCCC3)c(Cl)cc1Cl` (stereo not drawn) [Example 9], the pest or weed control at 16 g/ha in series [1], in series [2] and in series [3] was ≥ 85% in each case.

On to `CCOC(=O)COc1ncccc1Oc1cc(-c2nn(C)c(C(F)(F)F)cc2=O)c(F)cc1Cl` [Example 15], for which the pest or weed control at 16 g/ha (in the series with SETVI (Setaria viridis); in series [1]; in series [2]; in series [3]) was ≥ 85% each time.

For `CCOC(=O)COc1ccccc1Oc1cc(-n2c(=O)c(C)c(C(F)(F)F)n(C)c2=O)c(F)cc1Cl` [Example 16], the “damages crop plants ZEAMX” value with ZEAMX (Zea mays) [4] amounted to 10. Besides, the pest or weed control at 16 g/ha (in the series with SETVI (Setaria viridis); in series [1]; in series [2]; in series [3]) was ≥ 85% throughout. In series [2], the “damages unwanted plants ECHCG” value is reported as 100.

With `CCOC(=O)COc1ccccc1Oc1cc(-n2c(=S)cc(C(F)(F)F)n(C)c2=O)c(F)cc1Cl` [Example 17], the “damages unwanted plants AMARE” value in series [5] came out at 100. For the same compound, the pest or weed control at 16 g/ha (with SETVI (Setaria viridis); in series [1]; in series [2]; in series [3]) was ≥ 85% in each case. For the same compound, the “damages crop plants ZEAMX” value in the series on ZEAMX (Zea mays) [6] was 0.

For `CCOC(=O)COc1ncccc1Oc1cc(-c2ncc(C(F)(F)F)cc2Cl)c(F)cc1Cl` [Example 18], the pest or weed control at 16 g/ha (in the series with SETVI (Setaria viridis); in series [1]; in series [2]; in series [3]) was ≥ 85% throughout.

Regarding `O=C(O)COc1ncccc1Oc1cc(-c2ncc(C(F)(F)F)cc2Cl)c(F)cc1Cl` [Example 19], the pest or weed control at 16 g/ha (with SETVI (Setaria viridis); in series [1]; in series [2]; in series [3]) was ≥ 85% each time.

As to `CCOC(=O)COc1ccccc1Oc1cc(-n2c(=O)cc(C(F)(F)F)n(C)c2=O)c(F)cc1Cl` [compound a-9, reference compound], the “damages crop plants ZEAMX” value in the series on ZEAMX (Zea mays) [4] is 70; in the series on ZEAMX (Zea mays) [6], 40. In addition, the “damages unwanted plants AMARE” value in series [5] is given as 100. The “damages unwanted plants ECHCG” value in series [2] was determined as 98.

Source of the values: patent publication US12133529B2, “Herbicidal phenylethers” (BASF SE, priority 2017, dated 2024).
